Data published in patent US20230257351A1, “SUBSTITUTED N-[…] HAVING P2X4 RECEPTOR ANTAGONISTIC ACTIVITY” (Bayer Aktiengesellschaft, priority 2020, published 2023).

How the values were obtained:
rat P2X4 = target: T1, rat P2X4 (Rattus norvegicus, UniProt P51577); assay: FLIPR Method for Rat P2X4 1321N1 Astrocytoma Cells; type: cell-based; conditions: 1321N1 stably expressing rat P2X4; agonist MgATP 5 μM (EC80)
T1 construct: expressed in transfected cells
T1 sequence (P51577 1-388): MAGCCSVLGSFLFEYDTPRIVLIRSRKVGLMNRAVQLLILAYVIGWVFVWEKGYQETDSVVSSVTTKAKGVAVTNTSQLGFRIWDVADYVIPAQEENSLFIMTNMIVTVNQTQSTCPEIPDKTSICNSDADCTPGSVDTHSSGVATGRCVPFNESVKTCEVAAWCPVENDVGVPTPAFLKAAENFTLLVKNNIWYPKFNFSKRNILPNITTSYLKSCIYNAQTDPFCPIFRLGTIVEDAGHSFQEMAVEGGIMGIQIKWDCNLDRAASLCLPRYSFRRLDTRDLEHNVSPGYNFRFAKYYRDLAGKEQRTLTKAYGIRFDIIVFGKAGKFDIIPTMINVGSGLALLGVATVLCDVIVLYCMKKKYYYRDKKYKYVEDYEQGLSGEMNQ
Description: Compounds were tested on a 1321N1 cell line stably expressing rat P2X4. Cells were cultured on collagen-I-coated 384-well plates at a density of 10,000 cells/well and incubated overnight at 37° C., 5% CO2. P2X4 function was assessed by measuring intracellular calcium fluxes caused by Magnesium-ATP (MgATP) using the calcium-chelating dye Fluo8-AM (Molecular Devices) with the Fluorescent Imaging Plate Reader Tetra (FLIPR^Tetra; Molecular Devices CA). On the day of the assay, the medium was removed and the cells were incubated for 30 minutes at 37° C. and 5% CO2 in 30 μl of dye buffer (Hank's balanced salt solution, 10 mM HEPES, 1.8 mM CaCl2, 1 mM MgCl2, 2 mM probenecid, 5 mM D-glucose monohydrate, 5 μM Fluo8-AM, pH=7.4).
Compounds diluted in probenecid buffer (Hank's balanced salt solution, 10 mM HEPES, 1.8 mM CaCl2, 1 mM MgCl2, 2 mM probenecid, 5 mM D-glucose monohydrate, pH=7.4) at ten concentrations ranging from 25 μM to 1 nM (final concentration) were dispensed and incubated for 30 minutes at room temperature. The agonist, MgATP (Sigma-Aldrich Chemie GmbH, DE), was added at a final concentration of 5 μM, representing the EC80 routinely determined. The final assay volume was 50 μl and final DMSO concentration was 0.5%.
The fluorescence intensity reflecting intracellular calcium changes was recorded before and after MgATP addition, at an excitation and emission wavelengths of 470-495 nm and 515-575 nm respectively.
The compounds were tested in triplicates and fluorescence intensity raw data normalized to the agonist control and fitted to the four-parameter logistic equation:
Y=Bottom+(Top−Bottom)/(1+10^((Log IC50−X)*HillSlope))
Assay plate acceptance was based on the signal window (S/B)[…] and the reference compound pIC50 within ±[…] the mean of historic pIC50 of the compound. Failure to meet two of the three criteria determined exclusion of the plate's results. In Table 10 below the results for the assays are reported

human P2X4 = target: T2, human P2X4 (Homo sapiens, UniProt Q99571); assay: Human P2X4 HEK Cell FLIPR Assay; type: cell-based; conditions: HEK293 stably expressing human P2X4, agonist Bz-ATP 3 μM (EC80); for IC50: read-out: Human P2X4 HEK Cells (FLIPR Assay) avg IC50
T2 construct: expressed in transfected cells
T2 sequence (Q99571 1-388): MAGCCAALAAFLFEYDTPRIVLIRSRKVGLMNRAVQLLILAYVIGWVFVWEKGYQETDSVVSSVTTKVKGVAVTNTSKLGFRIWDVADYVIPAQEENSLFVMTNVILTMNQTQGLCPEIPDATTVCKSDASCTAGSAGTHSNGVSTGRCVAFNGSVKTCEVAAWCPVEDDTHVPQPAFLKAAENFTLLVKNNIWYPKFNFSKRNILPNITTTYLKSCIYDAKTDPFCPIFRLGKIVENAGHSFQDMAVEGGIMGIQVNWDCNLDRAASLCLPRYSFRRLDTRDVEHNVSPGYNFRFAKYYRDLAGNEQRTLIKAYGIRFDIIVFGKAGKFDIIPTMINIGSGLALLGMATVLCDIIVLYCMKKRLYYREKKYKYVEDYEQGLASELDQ
Method in brief: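 HEK293 cells stably expressing human P2X4 were loaded with Fluo8-AM (30 min, 37 °C, HBSS/HEPES pH 7.4 with probenecid), then preincubated 30 min at room temperature with compound, 25 μM–1 nM final, 0.5% DMSO. Bz-ATP-evoked calcium fluorescence was read on FLIPR; data were normalized to agonist control and given a four-parameter fit for IC50.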

| Structure (SMILES) | IC50 (rat P2X4) [nM] | Rat P2X4 1321N1 Astrocytoma Cells (FLIPR Assay) avg Efficacy (rat P2X4) [%] | Human P2X4 HEK Cells (FLIPR Assay) avg Efficacy (human P2X4) [%] | IC50 (human P2X4) [nM] |
| --- | --- | --- | --- | --- |
| CC(=O)N(c1cc(F)cc(F)c1)c1cc(NC(=O)Cc2c(C)cccc2C)ccn1 [Example 85, N-(3,5-difluorophenyl)-N-{4-[2-(2,6-dimethylphenyl)acetamido]pyridin-2-yl}acetamide] | 229 | 97 | 98 | 251 |
| CC(=O)N(c1cc(F)cc(F)c1)c1cc(NC(=O)Cc2ccccc2OC(F)(F)F)ccn1 [Example 91, N-(3,5-difluorophenyl)-N-(4-{2-[2-(trifluoromethoxy)phenyl]acetamido}pyridin-2-yl)acetamide] | 1630 | 100 | 98 | 345 |
| CC(=O)N(c1ccc(F)c(Cl)c1)c1cc(NC(=O)Cc2cccc(F)c2Cl)ccn1 [Example 52, N-(3-chloro-4-fluorophenyl)-N-{4-[2-(2-chloro-3-fluorophenyl)acetamido]pyridin-2-yl}acetamide] | 358 | 99 | 98 | 355 |
| CC(=O)N(c1ccccc1)c1cc(NC(=O)Cc2c(Cl)cccc2Cl)ccn1 [Example 27, N-{4-[2-(2,6-dichlorophenyl)acetamido]pyridin-2-yl}-N-phenylacetamide] | 652 | 99 | 97 | 242 |
| CC(=O)N(c1cc(F)cc(F)c1)c1cc(NC(=O)Cc2c(Cl)cc(F)cc2Cl)ccn1 [Example 90, N-{4-[2-(2,6-dichloro-4-fluorophenyl)acetamido]pyridin-2-yl}-N-(3,5-difluorophenyl)acetamide] | 110 | 97 | 98 | 272 |
| CC(=O)N(c1cccc(F)c1)c1cc(NC(=O)Cc2c(Cl)cccc2Cl)ccn1 [Example 56, N-{4-[2-(2,6-dichlorophenyl)acetamido]pyridin-2-yl}-N-(3-fluorophenyl)acetamide] | 190 | 98 | 97 | 260 |
| CC(=O)N(c1ccc(F)c(Cl)c1)c1cc(NC(=O)Cc2c(Cl)cccc2Cl)ccn1 [Example 53, N-(3-chloro-4-fluorophenyl)-N-{4-[2-(2,6-dichlorophenyl)acetamido]pyridin-2-yl}acetamide] | 143 | 100 | 100 | 455 |
| CC(=O)N(c1cccc(Cl)c1)c1cc(NC(=O)Cc2ccccc2Cl)ccn1 [Example 131, N-(3-chlorophenyl)-N-{4-[2-(2-chlorophenyl)acetamido]pyridin-2-yl}acetamide] | 262 | 98 | 98 | 206 |
| CC(=O)N(c1ccc(F)cc1)c1cc(NC(=O)Cc2ccccc2OC(F)(F)F)ccn1 [Example 42, N-(4-fluorophenyl)-N-(4-{2-[2-(trifluoromethoxy)phenyl]acetamido}pyridin-2-yl)acetamide] | 1360 | 96 | 98 | 350 |
| CC(=O)N(c1cc(F)cc(F)c1)c1cc(NC(=O)Cc2cccc(F)c2Cl)ccn1 [Example 88, N-{4-[2-(2-chloro-3-fluorophenyl)acetamido]pyridin-2-yl}-N-(3,5-difluorophenyl)acetamide] | 451 | 100 | 97 | 198 |
| COc1ccc(N(C(C)=O)c2cc(NC(=O)Cc3ccccc3Cl)ccn2)cc1F [Example 77, N-{4-[2-(2-chlorophenyl)acetamido]pyridin-2-yl}-N-(3-fluoro-4-methoxyphenyl)acetamide] | 993 | 84 | 94 | 354 |
| CC(=O)N(c1cccc(C#N)c1)c1cc(NC(=O)Cc2ccccc2Cl)ccn1 [Example 13, N-{4-[2-(2-chlorophenyl)acetamido]pyridin-2-yl}-N-(3-cyanophenyl)acetamide] | 790 | 93 | 96 | 289 |
| CC(=O)N(c1ccc(F)cc1)c1cc(NC(=O)Cc2c(Cl)cccc2C#N)ccn1 [Example 33, N-{4-[2-(2-chloro-6-cyanophenyl)acetamido]pyridin-2-yl}-N-(4-fluorophenyl)acetamide] | 1540 | 98 | 93 | 723 |
| CC(=O)N(c1ccc(F)c(F)c1)c1cc(NC(=O)Cc2ccccc2C(F)(F)F)ccn1 [Example 63, N-(3,4-difluorophenyl)-N-(4-{2-[2-(trifluoromethyl)phenyl]acetamido}pyridin-2-yl)acetamide] | 372 | 97 | 97 | 424 |
| CC(=O)N(c1cc(NC(=O)Cc2ccccc2Cl)ccn1)c1ccc(F)cc1F [Example 126, N-{4-[2-(2-chlorophenyl)acetamido]pyridin-2-yl}-N-(2,4-difluorophenyl)acetamide] | 377 | 83 | 96 | 176 |
| CC(=O)N(c1ccc(F)c(Cl)c1)c1cc(NC(=O)Cc2ccccc2Cl)ccn1 [Example 50, N-(3-chloro-4-fluorophenyl)-N-{4-[2-(2-chlorophenyl)acetamido]pyridin-2-yl}acetamide] | 213 | 96 | 95 | 351 |
| CC(=O)N(c1cccc(F)c1)c1cc(NC(=O)Cc2c(Cl)cc(F)cc2Cl)ccn1 [Example 57, N-{4-[2-(2,6-dichloro-4-fluorophenyl)acetamido]pyridin-2-yl}-N-(3-fluorophenyl)acetamide] | 122 | 97 | 99 | 377 |
| CC(=O)N(c1cc(F)cc(F)c1)c1cc(NC(=O)Cc2ccc(F)cc2Cl)ccn1 [Example 87, N-{4-[2-(2-chloro-4-fluorophenyl)acetamido]pyridin-2-yl}-N-(3,5-difluorophenyl)acetamide] | 983 | 94 | 98 | 313 |
| CC(=O)N(c1ccc(F)c(Cl)c1)c1cc(NC(=O)Cc2ccc(F)cc2Cl)ccn1 [Example 51, N-(3-chloro-4-fluorophenyl)-N-{4-[2-(2-chloro-4-fluorophenyl)acetamido]pyridin-2-yl}acetamide] | 177 | 96 | 98 | 493 |
